Test results taken from patent US9034814B2, “CXCR4 antagonists for wound healing and re-epithelialization” (Hadasit Medical Research Services and Development Ltd., priority 2005, dated 2015).
Entries after “also recorded” stand apart in the source; their conditions may differ. Bridge positions count the residues as written; N and C are the ends. Square brackets hold non-standard residues; d marks the D form. * marks the point of attachment. 2Nal = N[C@@H](Cc1ccc2ccccc2c1)C(=O)O; Benzoyl(4-F) = O=C(c1ccc(F)cc1)*; Cit = NC(=O)NCCC[C@H](N)C(=O)O

How the values were obtained:
[1] = tested on: partial thickness burns in a rat model; assay: Rat partial thickness burn wound healing, histological evaluation; assay type: in vivo
Source text: In order to examine the different phases in burn wound healing and the involvement of the chemokine CXCL12 and the receptor CXCR4, the following experiments were done. Wistar female rats were anesthetized and their back was shaved. 1 cm^2 burns were inflicted with a metal rod that has been immersed in a hot boiling water bath and laid on the posterior part of the hip and back for 2-3 seconds. All experiments were approved by the Animal care committee of the Medical Center, Tel-Aviv and the Hebrew University. Heterozygous mice bearing a GFP reporter knocked-in allele to the CX3CR1 locus (Qu et al. 2004) were maintained at the Weizmann Institute of Science Animal Facility, and burns were inflicted as described above. Each group of 3 animals was injected subcutaneously to the burned area with PBS. Animals were sacrificed at the indicated times after burn infliction: 0, 6 hr, 1 day, 3 days, 5 days and 7 days. Histopathological diagnosis was confirmed for each specimen. Histological sections were prepared from formalin-fixed, paraffin-embedded tissues stained with Hematoxylin and Eosin. Evaluation to the level of epithelialization and white blood cells (WBC) in the epidermis and dermis was made to each section by a scale from 1-5. The sections were scored by two independent pathologists.
In other experiments, treated rats were injected subcutaneously to the burned area with one of the following: PBS, mAb against Rat CXCR4 (12G5 clone, R&D Systems Inc., Minneapolis, Minn.), or the small peptide CXCR4 inhibitor 4F-benzoyl-TN14003 (4F-benzoyl-Aig-Arg-Nal-Cys-Tyr-Cit-Lys-DLys-Pro-Tyr-Arg-Cit-Cys-Arg-NH2, SEQ ID NO:52; Tamamura et al., 2003). All animals were sacrificed 120 hr after injury. Histopathological diagnosis was confirmed for each specimen. Histological sections were prepared from formalin-fixed, paraffin-embedded tissues stained with Hematoxylin and Eosin. Evaluation to the level of epithelialization and white blood cells (WBC) in the dermis was made to each section by a scale from 1-5. The grading scale was as follows: 0=No inflammation or epithelialization; 1=Low inflammation or epithelialization; 2=Low to moderate inflammation or epithelialization; 3 Moderate inflammation or epithelialization; 4=High inflammation or epithelialization; 5=Very high inflammation or epithelialization. Each section was evaluated by two independent pathologists.
Next, the inhibitory effect of CXCR4 antagonists on burn wound healing was examined (FIG. 9). Inhibitors were injected subcutaneously to the burned area at 0, 1 day, and 3 days (20 μg per injection), and animals were sacrificed 5 days post burn. […] A small but not significant decrease in the PMN population in the dermis was observed (FIG. 10). […]

[2] = molecular target: T1, CXCR4 (Rattus norvegicus, UniProt O08565); assay: Transwell migration of rat lymphocytes in response to CXCL12; assay type: cell-based; details: CXCL12 100 ng/ml; antibody against CXCR4 10 μg/ml; FIG. 8
T1 construct: endogenous in cells; host or cells: rat peripheral blood mononuclear cells / lymphocytes (Ficoll-Histopaque isolated)
T1 sequence (O08565 whole entry): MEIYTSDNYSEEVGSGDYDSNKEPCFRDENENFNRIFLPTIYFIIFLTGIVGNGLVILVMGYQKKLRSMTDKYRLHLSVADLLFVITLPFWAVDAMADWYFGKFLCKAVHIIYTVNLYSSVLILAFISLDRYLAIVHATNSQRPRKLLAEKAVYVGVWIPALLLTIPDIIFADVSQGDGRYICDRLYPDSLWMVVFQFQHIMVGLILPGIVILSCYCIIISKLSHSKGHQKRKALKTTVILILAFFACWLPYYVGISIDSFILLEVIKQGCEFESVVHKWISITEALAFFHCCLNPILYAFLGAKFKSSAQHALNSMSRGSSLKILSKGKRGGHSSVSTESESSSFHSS
Experimental: Rat peripheral blood cells were loaded on Ficoll-Histopaque gradient (Histopaque-1077-1, Sigma) and the peripheral blood mononuclear cells (PBMC) were isolated. Rat PBMC migration was assessed in 24-well chemotaxis chambers (6.5-mm diameter, 5-μm pore polycarbonate transwell culture insert; Costar, Cambridge, Mass.). 600 μl RPMI 1640 with 1% BSA (migration buffer) with or without 100 ng/ml of CXCL12α (Peprotech) were added to the lower wells, and 2×10^5 cells suspended in 100 μl of RPMI 1640 with 1% BSA were added to the upper wells. After three hours of incubation, the membrane was removed and migrating cells were counted for 1 min using fluorescence activated cell sorting (FACS).
In order to evaluate the effect of the CXCR4 antagonist 4F-benzoyl-TN14003 and neutralizing antibodies to the receptor on the recovery of rat skin, the inventors first tested their ability to inhibit the migration of rat lymphocytes in response to CXCL12. Migration assay was carried out on total rat lymphocytes separated by Ficoll gradient and their migrating ability to medium containing CXCL12 was examined. Lymphocytes were incubated with the CXCR4 antagonist 4F-benzoyl-TN14003, or an antibody against CXCR4 (10 μg/ml).

[3] = rat burn, 20 μg per injection s.c. at 0, 1 day, 3 days, 5 days post burn, FIG. 11

With “4F-benzoyl-Arg-Arg-Nal-Cys-Tyr-Cit-Lys-DLys-Pro-Tyr-Arg-Cit-Cys-Arg-NH2 ({Benzoyl(4-F)}-RR[2Nal]CY[Cit]K[dK]PYR[Cit]CR-NH2; disulfide 4-13 (inferred)) [4F-benzoyl-TN14003]” the “accumulation of PMN cell population in the epidermis” value [1, 3] was “not affected”, the “eosinophil accumulation in the dermis” value [1, 3] was “reduced eosinophilia; also recorded: strong and significant inhibition” and the epithelialization ([1]; rat burn, 20 μg per injection subcutaneously to the burned area at 0, 1 day, 3 days, sacrificed 5 days post burn, FIG. 9) was “improved epithelialization; also recorded: increased epithelialization”. For the same substance, the “potency in improving wound healing in vivo, peptide antagonist versus neutralizing mAb” value ([1]; rat partial thickness burns) was “more potent than the neutralizing mAb” and the “effect on the migration of rat lymphocytes in response to CXCL12” value [2] was “strong inhibitory effect”.
